Measured values: PubChem BioAssay (NCI)
Several values for one entry are separate records, joined by “and”; a condition that tells them apart may be missing. Identical values can stand only once.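 Briefly, cells in 96-well plates were exposed to five compound concentrations for 48 h, and endpoints were estimated by linear interpolation. GI50: concentration for 50% inhibition of growth. TGI: total growth inhibition.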

Legend:
Assay in all cases: NCI-60 cell line screen, 48 h
[1] = system: CAKI-1 renal
[2] = system: OVCAR-3 ovarian
[3] = system: NCI-H460 lung
[4] = system: HCT-116 colon
[5] = system: SK-MEL-5 melanoma
[6] = system: KM12 colon
[7] = system: M14 melanoma
[8] = system: PC-3 prostate
[9] = system: MDA-MB-231 breast
[10] = system: T-47D breast

Row | SMILES | TGI [1] | TGI [2] | TGI [3] | TGI [4] | TGI [5] | TGI [6] | TGI [7] | GI50 [8] [µM] | TGI [8] [µM] | GI50 [2] [µM] | GI50 [3] [µM] | GI50 [9] [µM] | TGI [9] [µM] | GI50 [4] [µM] | GI50 [5] | GI50 [10] [µM] | TGI [10] [µM] | GI50 [6] [µM] | GI50 [7] | GI50 [1]
1 | COc1ccc(C(C2=C(O)CC(C)OC2=O)C2=C(O)CC(C)OC2=O)cc1 (stereo not drawn) | > 100 µM | > 100 µM | > 100 µM | > 100 µM | > 100 µM | > 100 µM | > 100 µM | – | – | – | – | – | – | – | – | – | – | – | – | –
2 | CCO/C=C\C12CCCC1NC(c1ccccc1)(c1ccccc1)O2 (stereo not drawn) | 65.6 µM | 55.7 µM | > 100 µM | > 100 µM | 31.1 µM | > 100 µM | 66 µM | – | – | – | – | – | – | – | – | – | – | – | – | –
3 | CCN1CCN(c2ccc(NC(=O)Nc3nc4ccc(-c5ccccc5OC)cc4s3)cc2)CC1 | – | 3.11 µM | 3.27 µM | 3.01 µM | 3.12 µM | 3.33 µM | 3.03 µM | 1.79 | 3.47 | 1.64 | 1.77 | 1.72 | 3.28 | 1.58 | 1.73 µM | 1.58 | 3.61 | 1.75 | 1.62 µM | –
4 | OC1OCC(COc2cc(Cl)c(Cl)cc2Cl)OC1O (stereo not drawn) | > 100 µM | 69.5 µM | > 100 µM | 42.1 µM | > 100 µM | > 100 µM | > 100 µM | – | – | – | – | – | – | – | – | – | – | – | – | –
5 | NC(=O)NNC/C(Cl)=C(\Cl)C(=O)O | > 100 µM | > 100 µM | > 100 µM | > 100 µM | > 100 µM | > 100 µM | > 100 µM | – | – | – | – | – | – | – | – | – | – | – | – | –
6 | [N-]=[N+]=C(C(=O)CN1CCCC1=O)S(=O)(=O)c1ccccc1 | – | > 100 µM | > 100 µM | > 100 µM | > 100 µM | > 100 µM | > 100 µM | – | > 100 | – | – | – | > 100 | – | – | – | – | – | – | –
7 | CCOC(=O)C1=C(Nc2ccc(OC)cc2)C(N)=NC1=N | > 100 µM | 6.5 µM | > 100 µM | > 100 µM | 55.8 µM | > 100 µM | – | 3.26 | > 100 | 2.49 | 3.73 | 4.02 | > 100 | 2.45 | 0.57 µM | > 100 | > 100 | 2.64 | – | 5.84 µM
8 | COc1cc(C2c3cc4c(cc3[C@@H](NC3CCN(Cc5ccccc5)CC3)C3COC(=O)[C@H]23)OCO4)cc(OC)c1O (stereo partly drawn) | 0.694 µM and 2 µM | 1.56 µM and 1.04 µM | 0.194 µM and 0.116 µM | 2.28 µM and 1.59 µM | 1.4 µM and 0.373 µM | 2.23 µM and 1.02 µM | 0.744 µM and 0.346 µM | – | – | – | < 0.01 | – | – | – | 0.206 µM and 0.0739 µM | – | – | – | 0.18 µM and 0.0484 µM | 0.0372 µM and 0.277 µM
9 | O=C(NC1CCC[C@H]1OC(=O)c1ccccc1)c1ccccc1 (stereo partly drawn) | > 100 µM | > 100 µM | > 100 µM | > 100 µM | > 100 µM | > 100 µM | > 100 µM | – | – | – | – | – | – | – | – | – | – | – | – | –
10 | O=C(Nc1ccc(Br)cc1)C(=O)C(C(=O)c1ccc(Cl)c(Cl)c1)C1OC(=O)c2ccccc21 (stereo not drawn) | 51.3 µM | 67.3 µM | 38.2 µM | 25.9 µM | – | 31.8 µM | 31.9 µM | – | – | – | – | – | – | – | – | – | – | – | – | –
11 | CCCCCCCCCCCCCCNCC(OC)OC | – | 32.6 µM | 34.1 µM | 26 µM | 29.3 µM | 26.7 µM | 27.4 µM | – | – | – | – | – | – | – | – | – | – | – | – | –
12 | Nc1nc2cc(Cl)ccc2n1N | > 100 µM | – | – | > 100 µM | > 100 µM | > 100 µM | > 100 µM | – | > 100 | – | – | – | > 100 | – | – | – | > 100 | – | – | –
13 | CC1C(c2ccccc2)N(C)C(c2ccccc2)C(C)C1(O)c1ccccc1 (stereo not drawn) | > 100 µM | > 100 µM | > 100 µM | > 100 µM | > 100 µM | > 100 µM | > 100 µM | – | – | – | – | – | – | – | – | – | – | – | – | –
14 | C/C(=N\N=C(N)N)C(CN1CCOCC1)C(c1ccccc1)c1c(O)c2ccccc2oc1=O (stereo not drawn) | > 100 µM | > 100 µM | > 100 µM | > 100 µM | > 100 µM | > 100 µM | > 100 µM | – | – | – | – | – | – | – | – | – | – | – | – | –
15 | O=C1c2ccccc2C(=O)N1CC#CCO | > 100 µM | > 100 µM | > 100 µM | > 100 µM | > 100 µM | > 100 µM | > 100 µM | – | – | – | – | – | – | – | – | – | – | – | – | –
16 | CC1(C)CC(=O)C(CC2C(=O)CCCC2=O)C(=O)C1 | > 100 µM | > 100 µM | > 100 µM | > 100 µM | > 100 µM | > 100 µM | > 100 µM | – | – | – | – | – | – | – | – | – | – | – | – | –
17 | O=C(CC12C3C4C1C1C2C3C41CC(=O)NO)NO (stereo not drawn) | > 100 µM | > 100 µM | 62.5 µM | > 100 µM | > 100 µM | > 100 µM | > 100 µM | – | – | – | – | – | – | – | – | – | – | – | – | –
18 | COc1ccc(C(=O)/C=C/c2ccc(OCc3cccc(C(F)(F)F)c3)c(OC)c2)cc1OC | – | > 1000 µM | > 1000 µM | > 1000 µM | 301 µM | > 1000 µM | > 1000 µM | 61.4 | > 1000 | 48.4 | 51.7 | 51.1 | > 1000 | 34.9 | 38.4 µM | 32.1 | > 1000 | 55.3 | 70.9 µM | –
19 | CCCCCCCCN(CCCCCCCC)CC(O)c1cc(-c2ccccc2)nc2ccc(OC)cc12 (stereo not drawn) | – | 61.2 µM | > 100 µM | 68.4 µM | > 100 µM | > 100 µM | 68.5 µM | 47.7 | > 100 | 21.2 | > 100 | 11.1 | > 100 | 15.7 | 34.4 µM | 25.6 | > 100 | 79.9 | 20.3 µM | –
20 | C=CCC1(CN(C)C)CC/C(=C\c2ccc3c(c2)OCO3)C1=O (stereo not drawn) | > 100 µM | > 100 µM | > 100 µM | > 100 µM | 60.5 µM | > 100 µM | > 100 µM | – | – | – | – | – | – | – | – | – | – | – | – | –
21 | COc1nn(C)cc1Nc1nccc(-c2c[nH]c3c(NC(=O)[C@@H](C)N4CCN(C)CC4)cccc23)n1 | > 100 µM | > 100 µM | > 100 µM | > 100 µM | 36.5 µM | > 100 µM | 41.2 µM | 51.2 | > 100 | 56.1 | 40.7 | 34.9 | > 100 | 34.3 | 18.5 µM | – | – | 37.6 | 18.9 µM | 29.2 µM
22 | CC1(c2ccc(F)cc2)C2C(=O)NC(=O)C1C(=O)NC2=O (stereo not drawn) | > 100 µM | > 100 µM | > 100 µM | – | > 100 µM | > 100 µM | > 100 µM | – | – | – | – | – | – | – | – | – | – | – | – | –
23 | C=CC1=C(C)C(/C=c2\[nH]/c(=C/c3[nH]c(CC4NC(=O)C(C)/C4=C\C)c(C)c3CCC(=O)O)c(CC(=O)O)c2C)=NC1=O (stereo not drawn) | > 100 µM | > 100 µM | > 100 µM | > 100 µM | – | > 100 µM | > 100 µM | – | – | – | – | – | – | – | – | – | – | – | – | –
